The record followed here is patent US20140356863A1, “METHODS FOR DETERMINING THE SUSCEPTIBILITY OF A VIRUS TO AN ATTACHMENT INHIBITOR” (BRISTOL-MYERS SQUIBB COMPANY, priority 2011, published 2014).

A value given as a limit tells only on which side of the number the result lay.

For test [1], the system named is HIV-1 RF strain binding to sCD4-Fc. As to the kind of experiment: immunoassay: virus capture by sCD4-Fc on protein G beads, quantitated by p24 ELISA. The conditions noted are these: attachment inhibitor 0.5 uM, 15 min room temperature, FIG. 2. As for the experimental part: (§1) Two laboratory strains of HIV-1 were used in this assay, NL4-3, which is susceptible to the attachment inhibitor, the other is RF, which is insensitive to the action of the attachment inhibitor. The amount of virus present with and without attachment inhibitor (AI) is quantitated by a p24 ELISA.
(§2) Virus stock was diluted to 1×10^4 TCID50 per ml in RPMI media with 10% fetal bovine serum (FBS). The attachment inhibitor (or DMSO) was added to a final concentration of 0.5 uM and the mixture incubated for 15 min at room temperature. Eighty microliters of sCD4-Fc (a recombinant protein containing the gp120 binding domain of CD4 connected to an immunoglobulin […]) at 5Oug/ml was added and incubated for an additional 30 min, with gentle rocking. Twenty microliters of protein G SEPHAROSE® beads (binding capacity of 200 ug IgG) was added and rocked at 4° C. for an additional 60 min. Unbound virus was removed by washing the beads 4 times with excess PBS. Virus captured on the beads was lysed with 0.5% Triton X-100 and the beads removed by centrifugation. The amount of virus present in the supernatant is quantitated by a p24 ELISA, according to the manufacturer's instructions (PerkinElmer NEK-050).

For test [2], the system named is HIV-1 NL4-3 binding to sCD4-Fc. Described as above. The conditions noted are these: attachment inhibitor 0.5 uM, 15 min room temperature, FIG. 2. How it is done:
as §1, §2

For the next test, the system named is HIV-1 RF strain. As to the kind of experiment: susceptibility of HIV-1 strains to an attachment inhibitor (IC50, inhibition of virus replication). The test is classed as cell-based. The following applies: Human immunodeficiency virus 1; HIV-1 laboratory strain RF. From the text: (§3) As used herein, “ICn” refers to Inhibitory Concentration. It is the concentration of drug in the patient's blood or in vitro needed to suppress the reproduction of a disease-causing virus (such as HIV) by n %. Thus, “IC50” refers to the concentration of an anti-viral agent at which virus replication is inhibited by 50% of the level observed in the absence of the drug.
(§4) Two laboratory strains of HIV-1 were used in this assay.

For another test, the system named is HIV-1 NL4-3. The test is described as above. The test is classed as cell-based. The following applies: Human immunodeficiency virus 1, NL43; HIV-1 laboratory strain NL4-3.
From the text: as §3, §4

With `COc1cnc(-n2cnc(C)n2)c2[nH]cc(C(=O)C(=O)N3CCN(C(=O)c4ccccc4)CC3)c12` [attachment inhibitor, 1-(4-benzoyl-piperazin-1-yl)-2-[4-methoxy-7-(3-methyl-[1,2,4]triazol-1-yl)-1H-pyrralo[2,3-c]pyridine-3-yl]-ethane-1,2-dione], the “amount of virus captured by sCD4-Fc (p24 ELISA) with attachment inhibitor versus DMSO” value in test [1] is “no significant difference”; in test [2], “much less than when DMSO is used”. Further, the figures for the IC50 in the test with HIV-1 RF strain and with HIV-1 NL4-3 were above 2000 nM and 2.2 ± 0.6 nM, respectively.
